Measurements: patent US5922554A, “Inhibition of cellular uptake of cholesterol” (The Regents of the University of California, priority 1996, dated 1999)

Legend:
Type in all cases: cell-based, human
[1] = tested on: fibroblast monolayers; experiment: Transfer of intracellular ^3 H-FC to the cell surface (cholesterol oxidase accessibility)
Description: This assay utilized the finding (see Example 1) that only FC in the caveolar fraction of the plasma membrane fraction was modified by cholesterol oxidase in unfixed fibroblast monolayers.
The rate at which intracellular LDL-derived ^3 H-FC became accessible at the cell surface was measured as follows. Cell monolayers were labeled with ^3 H-FC LDL under the conditions shown for each experiment. Unbound and adsorbed LDL were removed as described above. In some experiments metabolic inhibitors of different transport steps were then added for 30 min at 15° C. […] Cholesterol oxidase (Boehringer-Manheim, Indianapolis, Ind., USA) was added in PBS to a final concentration of 1 U ml^-1. Incubation was for 4 h at 0° C. The cells were washed with ice-cold PBS, and extracted with 0. 1N NAOH. Cell total lipid was extracted with chloroform-methanol (1:1 v/v). […] .
Fibroblast monolayers were prelabeled with FC-labeled LDL for 2 min at 31° C. Medium and surface-bound labeled LDL were removed as described above. The cells were incubated with inhibitors of intracellular transport for 30 min at 15° C. Movement of FC label to the cell surface remained negligible (FIG. 11).
^a Relative to rate in the absence of inhibitor. Values are expressed

[2] = tested on: fibroblast monolayers; experiment: Cholesterol efflux from ^3 H-cholesterol labeled fibroblasts to plasma
Description: Fibroblast monolayers were equilibrated with ^3 H-FC-labeled native plasma or with isolated ^3 H-labeled LDL, as specified for each experiment. Following incubation, the dishes were washed with albumin-complete PBS and then (×4) with complete PBS. They were then incubated for 3 min with unlabeled plasma or lipoprotein fractions and the rate of appearance of radioactivity in the medium determined. Samples of medium (100 μl) were immediately chilled in ice water and centrifuged (10 min, 2000× g) at 0-2° C. ^3 H-cholesterol radioactivity in the supernatant was either assayed directly, or fractionated by agarose gel electrophoresis. FC efflux was linear as previously reported (Kawano et al., Biochemistry, 32: 5025-5028 (1993)).
For electrophoresis, 20 μl portions of labeled medium were added to strips of 0.75% w/v agarose in 0.025M barbital buffer (pH 8.6) and separated as previously described (Fielding et al., Biochemistry, 30: 8551-8557 (1991)). 2.5 mm gel fractions were then collected, and radioactivity measured. The location of major lipoprotein classes was determined from strips run simultaneously with whole native plasma equilibrated (60 min, 37° C.) with ^3 H-FC.
^c Percent loss of label from cells prelabeled (10 min, 37° C.

[3] = tested on: fibroblast monolayers; experiment: Cellular cholesterol mass determined enzymatically; conditions: 2 mM NEM, 120 min, 37° C.; control 4.1 ± 0.3
Description: In most experiments, LDL was labeled directly with ^3 H-FC by exchange from albumin-agarose covalent complex essentially as previously described (Miida et al., Biochemistry, 29: 10469-10474 (1990)). Briefly, recrystallized human serum albumin (Sigma Chemical Co, St. Louis, Mo., USA) was covalently linked to CNBr-activated Sepharose 6B (Pharmacia). 1,2-^3 H-FC in ethanol (0.1-1.0 mCi, 10-20 μl/ml gel suspension) was added and the mixture incubated with gentle stirring for 60 mm at 37° C. The labeled suspension was centrifuged (500× g, 1 min) and the gel equilibrated (60 min, 37° C.) with unlabeled LDL prepared as described above. Finally the gel was removed by centrifugation, leaving labeled LDL in the supernatant. LDL total and FC mass was determined fluorimetrically with cholesterol oxidase (Heider & Boyett, J. Lipid Res. 19: 514-518 (1978)) in the presence or absence of cholesterol esterase. EC mass was obtained by difference. LDL ^3 H-radioactivity was measured by liquid scintillation spectrometry. FC specific activity in these experiments was 3×10^4 to 5×10^5 cpm μg^-1.
The FC and EC mass of cell monolayers was determined before and after incubation with lipoprotein as described above. Portions of the chloroform phase were analyzed for total and free cholesterol. […]
^a Increase in cellular cholesterol mass determined enzymatically ove

[4] = tested on: fibroblast monolayers; experiment: Influx/uptake of ^3 H-FC (free cholesterol) from labeled LDL (or plasma, HDL) into normal fibroblast monolayers
[5] = tested on: fibroblast monolayers; experiment: D2O-Ficoll density gradient fractionation of ^3 H-FC labeled fibroblasts; conditions: clathrin fraction d 1.12 g ml^-1; NEM 2 mM
Description: Early endosomal vesicles were labeled with LDL-derived ^3 H-FC by a modification of procedures described by Woodman & Warren (1991) J. Cell Biol., 112:1133-1141. Fibroblast monolayers in 10 cm dishes were washed in ice-cold PBS. The cells were labeled by incubation (2 h, 4° C.) with ^3 H-FC LDL. The monolayers were washed in PBS and brought to 31° C. for 0-15 min. The cells were then quickly chilled on ice, and cold unlabeled LDL was added (15 min, 4° C.) to displace any remaining surface-bound labeled LDL and all subsequent steps were carried out at 0-4° C.
Cells from three 10 cm dishes were used for each gradient. Monolayers were washed with 140 mM sucrose, 0.5 mM MgCl2, 1 mM EGTA, 20 mM 2-[N-morpholino]ethanesulfonic acid (MES), 70 mM potassium acetate, pH 6.6 (`vesicle buffer`) (Woodman & Warren, supra.). The cells were scraped from the dishes. Dithiothreitol (1 mm) and protease inhibitors (PMSF, 200 μg ml^-1; benzamidine 0.5 mM; soybean trypsin inhibitor 10 μg ml^-1; leupeptin 1 μg ml^-1) were added. The cells were broken with a Dounce homogenizer (15 strokes) and the homogenate centrifuged at 500× g for 5 min. Ribonuclease A (50 μg ml^-1) was added. After 30 min a second centrifugation was carried out (7000× g, 30 min). Supernatant (~2 ml) was layered on a 10 ml continuous gradient of 2% Ficoll-9% D2 O to 20% Ficoll-90% D2 O in vesicle buffer containing 1 mM dithiothreitol. Centrifugation in a Beckman SW41 rotor was carried out at 80,000× g for 16 h. Fractions (~0.6 ml) were collected dropwise and the distribution of FC label determined. Because of slight variation in fraction size between gradients, data were normalized to 20 fractions for comparison between experiments. Solution density was determined gravimetrically using 100 μl portions of each fraction. The density of a given fraction was reproducible ±0.5% between experiments.
Fibroblast monolayers were incubated with ^3 H-FC LDL for 30 min at 31° C. to predominantly label the intermediate density vesicle fraction. Cell surface LDL was removed as described above. […]

SMILES: CCN1C(=O)C=CC1=O [N-ethylmaleimide]
- transport of intracellular ^3 H-FC to the cell surface/caveolae [1]: inhibited the return of FC to the cell surface, but less effectively than did nocodazole
- % transfer of intracellular ^3 H-FC to the cell surface, relative to rate in absence of inhibitor ([1]; NEM 2 mM, KNO3 50 mM, nocodazole, brefeldin A, vinblastine 40 μM, pulse labeled 2 min 31° C., then 30 min 31° C.): 50 ± 3%
- initial rate of efflux of FC from prelabeled cells to plasma [2]: increased several-fold
- % efflux to plasma (3 min) ([2]; 2 mM NEM, 80% v/v plasma-PBS, 37° C., control 13.3 ± 0.1): 32.4 ± 0.2%
- Δ total cholesterol [3]: 0.4 ± 0.2 μg dish^-1
- inhibition of LDL-FC pathway (summary, words) [4]: inhibited
- effect on cellular uptake of LDL FC in first 10-15 min of incubation ([4]; 30 min preincubation, FIG. 8): no effect
- IC (maximal) ([4]; Homo sapiens, Fibroblast, read-out: concentration for maximal inhibition): 2000 to 5000 µM
- FC Influx ([4]; LDL-FC 60.2 μg ml^-1, 60 min, 37° C., 30 min preequilibration with inhibitor at: Na-azide 1 mM, NH4-vanadate 1 mM, NEM 2 mM, KNO3 50 mM, progesterone 30 μM, forskolin 30 μM, IBMX 100 μM, chloroquine 20 μM): 0.40 ± 0.01 µg
- inhibition of uptake of free cholesterol from LDLs (summary) ([4]; NEM or KNO3, Example 1, FIG. 8): > 80%
- effect on LDL FC uptake ([4]; Table 3 conditions): blocks selective uptake of FC from LDL
- time to complete inhibition by NEM ([4]; cells prelabeled to equilibrium (24 h) with ^3 H-FC): ≤ 30 min
- FC Influx, % (PBS only = 100.0) ([4]; same concentrations and conditions as Table 3 FC influx, 60 min): 30.0%
- inhibition of uptake of ^3 H-FC from LDL on further incubation ([4]; time course, 30 min preincubation, after 10-15 min, FIG. 8 (5 mM NEM)): > 80%
- FC label in density gradient [5]: no peak of FC label was present with clathrin at d 1.12 g ml^-1
